# Results taken from US20210069082A1, “SPIROKETALS AND USES THEREOF” (Memorial Sloan-Kettering Cancer Center, priority 2017, published 2021).
# Like-named read-outs stand apart in the source and are kept apart here.
# Key:
# [1] = system: rat mesangial cells; test: DCFDA assay of ROS levels upon exogenous H2O2 treatment; type: cell-based; details: 200 μM H2O2, rat mesangial cells
# Method: Dichlorofluorescin diacetate (DCFDA) assay measured ROS levels upon treatment with 200 μM H2O2.
# DCFDA assay measured ROS levels upon treatment with 200 μM H2O2.
# [2] = system: rat mesangial cells; test: Inhibition of high glucose-induced ROS production in rat mesangial cells (DCFH-DA fluorescence); type: cell-based; details: for Concentration required for complete inhibition (ROS production reduced to normal levels): high glucose-induced ROS, rat mesangial cells; for IC50: 3 h, DCFH-DA 50 μM, mean of three experiments, s.d. of log IC50 in brackets; for Antioxidant activity against hyperglycemia-induced ROS generation (in words): concomitant treatment with compound plus high glucose for 3 h, DCFDA assay
# Method: The inhibitory effects of the pyrrolomorpholine spiroketals on high glucose-induced oxidative stress were evaluated in rat mesangial cells (RMC). The rat mesangial cells, obtained from the American Type Culture Collection (CRL-2573), were cultured at 37° C. in Dulbecco's modified Eagle's medium (DMEM) containing 5.6 mM glucose (normal glucose), 10% fetal calf serum (FCS), nonessential amino acids, penicillin/streptomycin under a humidified atmosphere of 95% air and 5% CO2. Rat mesangial cells were seeded in 96-well plates approximately 24 hours before the start of all experiments. For more details on the antioxidant activity assays, see, e.g., Wang et al. Free Radical Biol. Med. 1999, 27, 612-616; Magalhães et al. Anal. Chim. Acta. 2008, 613, 1-19; Peng et al. Org. Lett. 2010, 12, 4932-4935; Hung et al. Am. J. Nephrol. 2009, 29, 192-202.
# For each experiment, rat mesangial cells were incubated with pyrrolomorpholine spiroketal compound (0.01, 0.03, 0.1, 0.3, 1, 3, 10, 30, 100, 200 μM) or 1 mM N-acetyl cysteine (NAC, positive control) in the presence of either 5.6 mM (normal glucose, NG) or 30 mM (high glucose, HG) D-glucose for 3 h. RMC were then incubated with 50 μM dichloro-dihydro-fluorescein diacetate (DCFH-DA) for 45 min, and intracellular production of ROS was detected by 2′,7′-dichlorofluorescein (DCF) fluorescence (485 nm excitation, 530 emission) as measured by a microplate reader (SpectraMax M5/M5, Molecular Devices). Values are expressed as percentage of ROS inhibition, where fluorescence from untreated cells under normal glucose conditions was set at 0% and untreated cells under high glucose conditions was set at 100%.
# [3] = system: rat mesangial cells; details: cited from earlier work; for Antioxidant activity as reported (in words): high glucose-induced ROS, rat mesangial cells, literature
# [4] = cyclic voltametry, Aponick and coworkers; cited from earlier work
# [5] = system: mesangial cells; details: through inhibition of NADPH oxidase, literature; cited from earlier work
# [6] = Chemical reactivity towards reactive oxygen and nitrogen species; type: physicochemical; details: equimolar concentrations
# [7] = Rattus norvegicus, Mesangial cell, compound 0-200 μM, high (30 mM) glucose, N-acetyl-cysteine at 1 mM, ***p ≤ 0.001, read-out: Maximum % ROS Inhibition
smiles,measurement,setting,value
"OC[C@H]1O[C@@]2(Cc3ccccc3CO2)C[C@@H]1O (single isomer, unassigned) [desformylbenzene 7]",Block of the direct effect of exogenous H2O2 on ROS levels,[1],does not block
same,inhibition,[2]; [7],100%
same,Concentration required for complete inhibition (ROS production reduced to normal levels),[2],5 µM
O=CC[C@H](O)[C@H](O)CO [2-deoxy-D-ribose],IC50,"[2]; Rattus norvegicus, Mesangial cell, compound 0-200 μM, high (30 mM) glucose",> 200 µM
"O=Cc1ccc2n1C[C@@]1(OC2)O[C@H](CO)[C@@H](O)[C@@H]1O.c1ccccc1 [Acortatarin B, acortatarin B]",Antioxidant activity as reported (in words),[3],significantly attenuating high glucose-induced generation of ROS
O=Cc1ccc2n1CC1(CC(O)C(CO)O1)OC2 [L-acortatarin A],Antioxidant activity against hyperglycemia-induced ROS generation (in words),[2],inactive
CC(=O)N[C@@H](CS)C(=O)O [N-acetyl-cysteine],inhibition at 1000 µM,[2]; [7],100%
"O=Cc1ccc2n1C[C@]1(C[C@H](O)[C@@H](CO)O1)OC2 [acortatarin A (1), acortatarin A]",First oxidation potential,[4],+1.74 V
same,Second oxidation potential,[4],1.90 V
same,Block of the direct effect of exogenous H2O2 on ROS levels,[1],does not block
same,Antioxidant activity as reported (in words),[3],complete inhibition of ROS induction at higher concentrations
same,Antioxidant activity as reported (in words),[3]; listed as Acortatarin A,significantly attenuating high glucose-induced generation of ROS
same,IC50,"[3]; rat mesangial cell model, intracellular ROS levels, read-out: IC50 against hyperglycemia-induced oxidative stress, as recently reported",4.9 µM
same,Effect on high glucose-induced extracellular matrix production,[5],prevent
same,"Reactivity to equimolar H2O2, OH radical and peroxynitrite",[6],unreactive
same,IC50,"[2]; compound 0-200 μM, high (30 mM) glucose",4.9 µM
same,Maximum % ROS Inhibition,"[2]; compound 0-200 μM, high (30 mM) glucose, N-acetyl-cysteine at 1 mM, ***p ≤ 0.001",100%***
same,Antioxidant activity against hyperglycemia-induced ROS generation (in words),[2],complete inhibition of ROS induction at higher concentrations
same,Concentration required for complete inhibition (ROS production reduced to normal levels),[2],20 µM
"O=Cc1cccc2c1C[C@]1(C[C@H](O)[C@@H](CO)O1)OC2 [formylbenzene 8, (2S,4S,5R)-4-hydroxy-5-(hydroxymethyl)-4,5-dihydro-3H-spiro[furan-2,3′-isochromane]-5′-carbaldehyde]",inhibition,[2]; [7],100%
